Experimental data taken from patent US6548540B2, “Method of treating cancer using dithiocarbamate derivatives” (Charlotte-Mecklenburg Hospital Authority, priority 1998, dated 2003).
Read-outs that look alike come from different tables or passages of the source.

How the values were obtained:
[1] = tested on: Melanoma M1585; test: MTT proliferation assay, M1585 melanoma; assay type: cell-based; details: Homo sapiens; for inhibition at 0.625 µM: disulfiram 0.625 μM; for inhibition at 0.625 µM / inhibition at 1.25 µM / inhibition at 2.5 µM / inhibition at 5 µM: read-out: Mean Percent Inhibition of Growth; for inhibition at 1.25 µM: disulfiram 1.25 μM; for inhibition at 2.5 µM: disulfiram 2.5 μM; for inhibition at 5 µM: disulfiram 5.0 μM
Description: (§1) Human malignant cell lines were obtained from American Type Tissue Culture Collection (Rockville, Md.). Melanoma cells lines CRL 1585 and 1619 were cultured in RPMI 1640 (GIBCO-BRL, Life Technologies, Grand Island, N.Y.) with 10% FBS and passed with nonenzymatic Cell Dissociation Solution® (Sigma). The prostate adenocarcinoma cell line CRL 1435 (PC-3) was also cultured in RPMI 1640 with 10% FBS but passed with 0.05% trypsin and 0.53 mM EDTA. The squamous lung carcinoma NCI-H520 and the adenosquamous lung carcinoma NCI-H596 cell lines were grown in RPMI 1640 supplemented with 10% FBS, 10 mM HEPES and 1.0 mM sodium pyruvate and passed with trypsin/EDTA. The small cell lung carcinoma NCI-H82 was cultured as a suspension in RPMI 1640 with 10% FBS. All of the above were grown in a 37° C. humidified environment containing 5% CO2/air. The breast carcinoma cell line MDA-MB-453 was grown in a 37° C. humidified environment with free gas exchange with atmospheric air using Leibovitz's L-15 medium with 2 mM L-glutamine and 10% FBS and was passed with trypsin/EDTA.
The effect of disulfiram (0.15 to 5.0 μM), diethyldithiocarbamate (DDC, 1.0 μM) or PDTC (0.625 to 5.0 μM) on proliferation of malignant cell lines was studied in cultures stimulated with 10% FBS. Cell numbers were quantitated 24-72 hours later. In some experiments disulfiram or PDTC were added immediately after cells were plated. In other experiments, cells were plated and allowed to grow for 24-72 hours before fresh media with disulfiram or PDTC was added, and cell numbers were assayed 24-72 hours later. Synergy was studied between disulfiram and N,N′-bis(2-chloroethyl-N-nitrosourea (carmustine or BCNU, 1.0 to 1,000 μM) or cisplatin (0.1 to 100 μg/ml) added to medium. The effect of metals on disulfiram was studied with 0.2 to 10 μM copper (provided as CuSO4), zinc (as ZnCl2), silver (as silver lactate) or gold (as HAuCl4.3H2O) ions added to growth medium. No pH changes occurred with addition of metal salts to culture medium. To provide a biologically relevant source of copper, in some experiments medium was supplemented with human ceruloplasmin at doses replicating low and high normal adult serum concentrations (250 and 500 μg/ml).
Proliferation of cultured cells was quantitated using a previously reported calorimetric method based upon metabolic reduction of the soluble yellow tetrazolium dye 3-[4,5-dimethylthiazol]-2yl-2,5-diphenyl tetrazolium bromide (MTT) to its insoluble purple formazan by the action of mitochondrial succinyl dehydrogenase (See, e.g., S. J. Hirst, et al., “Quantifying proliferation of cultured human and rabbit airway smooth muscle in response to serum and platelet derived growth factor,” Am. J. Respir. Cell Mol. Biol. 7:574-581 (1992); R. Dashtaki, et al. R., supra; S. S. Brar, et al., “Requirement for reactive oxygen species in serum-induced and platelet-derived growth factor-induced growth of airway smooth muscle,” J. Biol. Chem. 274:20017-20026 (1999)). This assay empirically distinguishes between dead and living cells. For proliferation studies, cells were seeded into 24-well uncoated plastic plates (Costar) at 50,000 cells per well and cultured with respective media and mitogens. After 24-96 hours, medium was removed, cells were washed twice with 1 ml of sterile Dulbecco's modified phosphate buffered saline without Ca^2+ or Mg^2+ (DPBS), the medium was replaced with 1 ml/well fresh medium containing 100 μg/ml MTT, and plates were incubated an additional hour. MTT-containing medium was removed, 0.5 ml dimethylsulfoxide (DMSO) was added to each well, and the absorbance of the solubilized purple formazan dye was measured at 540 nm. A total of 4-6 wells were studied at each treatment condition. Preliminary studies were performed with 50-200 μg/ml MTT incubated for 15 minutes to 3 hours to determine the optimum concentration and incubation time at which the rate of conversion was linear and proportional to the number of cells present. […]

[2] = tested on: M1619 melanoma cells; test: MTT proliferation assay, M1619 melanoma; assay type: cell-based, human
Description: as §1
The effect of disulfiram (0.15 to 5.0 μM), diethyldithiocarbamate (DDC, 1.0 μM) or PDTC (0.625 to 5.0 μM) on proliferation of malignant cell lines was studied in cultures stimulated with 10% FBS. Cell numbers were quantitated 24-72 hours later. In some experiments disulfiram or PDTC were added immediately after cells were plated. In other experiments, cells were plated and allowed to grow for 24-72 hours before fresh media with disulfiram or PDTC was added, and cell numbers were assayed 24-72 hours later.
Finally, a number of dithiocarbamate effects on cells have been attributed to increasing the intracellular levels of copper ions. To further probe the role of copper in mediating cytotoxicity from disulfiram, cells were cultured with or without addition of the impermeate Cu^2+ chelator bathocuprioinedisulfonic acid (BCPS, 100 μM) added to medium to sequester Cu^2+ in the extracellular compartment. Cells were also treated 12 hours with various concentration of disulfiram (0.625 to 5.0 μM) and intracellular copper levels were measured as outlined below.
Proliferation of cultured cells was quantitated using a previously reported calorimetric method based upon metabolic reduction of the soluble yellow tetrazolium dye 3-[4,5-dimethylthiazol]-2yl-2,5-diphenyl tetrazolium bromide (MTT) to its insoluble purple formazan by the action of mitochondrial succinyl dehydrogenase (See, e.g., S. J. Hirst, et al., “Quantifying proliferation of cultured human and rabbit airway smooth muscle in response to serum and platelet derived growth factor,” Am. J. Respir. Cell Mol. Biol. 7:574-581 (1992); R. Dashtaki, et al. R., supra; S. S. Brar, et al., “Requirement for reactive oxygen species in serum-induced and platelet-derived growth factor-induced growth of airway smooth muscle,” J. Biol. Chem. 274:20017-20026 (1999)). This assay empirically distinguishes between dead and living cells. For proliferation studies, cells were seeded into 24-well uncoated plastic plates (Costar) at 50,000 cells per well and cultured with respective media and mitogens.

[3] = treatment after 24 hours of growth
[4] = treatment initially, after 48 hours, 10% FBS

IC50 ([1]; M1585 melanoma cells, read-out: 50% inhibitor concentration (IC50)): 300 nM | IC50 ([2]; Homo sapiens, M1619, grown 24 hours, additional 24 hours, no added CuSO4, read-out: 50% inhibitory (IC50) concentration): 625 nM
Compound: CCN(CC)C(=S)SSC(=S)N(CC)CC [Disulfiram, tetraethylthiuram disulfide]
inhibition at 0.625 µM [1, 3]: 74 ± 4% | inhibition at 0.625 µM [1, 4]: 100% | inhibition at 1.25 µM [1, 3]: 49 ± 7% | inhibition at 1.25 µM [1, 4]: 100% | inhibition at 2.5 µM [1, 3]: 41 ± 2% | inhibition at 2.5 µM [1, 4]: 100% | inhibition at 5 µM [1, 3]: 37 ± 6% | inhibition at 5 µM [1, 4]: 100% | inhibition at 0.625 µM ([2]; Homo sapiens, disulfiram 0.625 μM, treatment after 24 hours of growth, read-out: Mean Percent Inhibition of Growth): 59 ± 4% | inhibition at 1.25 µM ([2]; Homo sapiens, disulfiram 1.25 μM, treatment after 24 hours of growth, read-out: Mean Percent Inhibition of Growth): 35 ± 4% | inhibition at 2.5 µM ([2]; Homo sapiens, disulfiram 2.5 μM, treatment after 24 hours of growth, read-out: Mean Percent Inhibition of Growth): 39 ± 3% | inhibition at 5 µM ([2]; Homo sapiens, disulfiram 5.0 μM, treatment after 24 hours of growth, read-out: Mean Percent Inhibition of Growth): 37 ± 4% | 100% inhibitory (IC100) concentration ([2]; M1619, with 0.2 μM CuSO4 added to medium, grown 24 hours, additional 24 hours): 0.625 µM | growth in vitro of M1619 melanoma ([2]; added at plating, 24 hours): potent inhibitor of growth | A540 of MTT Formazan ([2]; disulfiram 0.6 μM + carmustine 1 μM, 24 hours): 0.042 ± 0.003^C | A540 of MTT Formazan ([2]; disulfiram 0.6 μM + carmustine 10 μM, 24 hours): 0.025 ± 0.002^C | A540 of MTT Formazan ([2]; disulfiram 0.6 μM + carmustine 100 μM, 24 hours): 0.030 ± 0.023 | A540 of MTT Formazan ([2]; disulfiram 0.6 μM + carmustine 1,000 μM, 24 hours): 0.004 ± 0.000 | A540 of MTT Formazan ([2]; disulfiram 2.5 μM + cisplatin 1 ng/ml, added after 48 hours, additional 24 hours): 1.369 ± 0.033^B | A540 of MTT Formazan ([2]; disulfiram 2.5 μM + cisplatin 10 ng/ml, added after 48 hours, additional 24 hours): 1.221 ± 0.028 | A540 of MTT Formazan ([2]; disulfiram 2.5 μM + cisplatin 100 ng/ml, added after 48 hours, additional 24 hours): 1.183 ± 0.038^A | A540 of MTT Formazan ([2]; disulfiram 2.5 μM + cisplatin 1,000 ng/ml, added after 48 hours, additional 24 hours): 0.921 ± 0.027^A
